Results from patent US20260242759A1, “GQ/11 Protein Peptidomimetics” (Vrije Universiteit Brussel, priority 2022, published 2026).
Positions of bridges follow the written chain, without caps; N, C: chain ends. Non-standard residues stand in square brackets, D forms with d. Residues, ends and D or L forms follow the SMILES beside them. Triazole bridges read from a SMILES are 1,4-linked. Lys(N3) = [N-]=[N+]=NCCCC[C@H](N)C(=O)O; Cha = N[C@@H](CC1CCCCC1)C(=O)O; Pra = C#CC[C@H](N)C(=O)O

Tests used:
[1] = target: T1, human ghrelin receptor (GHSR) (Homo sapiens, UniProt Q92847, C146S/C304S); test: Bimane fluorescence assay on purified ghrelin receptor in nanodiscs; assay type: biochemical; details: bimane labeled GHSR, in presence of JMV1843
T1 construct: integrin α5 fragment (N); polyhistidine tag (C); made in house; host or cells: E. coli BL21(DE3)
T1 sequence (Q92847 whole entry C146S/C304S, the tested form may be a part): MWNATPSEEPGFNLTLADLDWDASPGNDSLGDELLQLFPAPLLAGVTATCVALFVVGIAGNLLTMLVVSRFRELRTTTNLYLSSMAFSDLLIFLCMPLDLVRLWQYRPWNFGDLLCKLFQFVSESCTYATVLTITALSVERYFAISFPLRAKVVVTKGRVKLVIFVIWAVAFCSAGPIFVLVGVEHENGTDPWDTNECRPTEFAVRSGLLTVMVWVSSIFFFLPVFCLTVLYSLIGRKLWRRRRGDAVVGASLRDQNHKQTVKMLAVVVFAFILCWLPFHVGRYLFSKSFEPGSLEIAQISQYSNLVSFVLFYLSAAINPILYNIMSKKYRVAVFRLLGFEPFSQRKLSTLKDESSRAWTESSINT
Source text: Another assay that can be used to analyse conformational changes associated with GPCR activation and/or to identify G protein peptidomimetics that are capable of stabilizing a GPCR in an active conformational state is the bimane fluorescence assay or bimane assay. This assay works through labelling of a cysteine residue in the lower part of the TM6 of a GPCR with a bimane-fluorophore (monobromobimane (MB)). Binding of an agonist to the GPCR causes a conformational change and outward movement of TM6 that places bimane in a more solved-exposed position, which will alter its maximum emission wavelength. In particular, increasing concentrations of agonist result in a concentration-dependent red-shift of the maximum emission wavelength (λmax) of the bimane-fluorophore probe. In the presence of a G protein or an active state stabilizing G protein peptidomimetic λmax may increase further. For example, a bimane labelled ghrelin receptor (such as a cysmin mutant (i.e. mutant with minimal cysteines) of human ghrelin receptor (also referred to herein as growth hormone secretagogue receptor (GHSR) (e.g. the mutant as described in Damian et al. (2021) wherein monobromobimane (MB) fluorescent probe is attached to Cys^255) and ghrelin receptor agonist JMV1843 may be used.
The bimane fluorescence assays on the ghrelin receptor were performed as described in Damian et al. (2021. Nat. Commun. 12:1-15). Briefly, E. coli bacteria (BL21(DE3)) were transformed with a vector encoding the human ghrelin receptor with an integrin α5 fragment at the N-terminus and a polyhistidine tag at the C-terminus. The receptors were then purified and reconstituted into lipidated nanodiscs. The monobromobimane labeling was performed by incubating the receptors, with a unique reactive cysteine at position 255, during 16 h in the dark at 4° C. and in the presence of 0.1 mM tris(2-carboxyethyl)phosphine (TCEO). The reaction was terminated with 5 mM L-cysteine and unreacted monobromobimane was removed using a Zeba™ Spin desalting column.
For the fluorescence assay, the labeled receptor was incubated during 2 h at 20° C. (0.2 μM final concentration), in the absence or presence of the full agonist JMV1843 (20 μM) and in the absence or presence of either the peptidomimetics at varying molar ratios or the purified Gαqβ1γ2 heterotrimer, at a 1:5 receptor-to-G protein molar ratio. Afterwards, the fluorescence experiments were performed on a Horiba Fluoromax-4 TCSP spectrofluorimeter. For each scan, the excitation wavelength (λexc) was set at 380 nm and emission was collected between 440 nm and 520 nm.
The bimane assay is used on GPCRs to detect conformational changes associated with receptor activation. This assay functions through the labelling of a cysteine, which is one of the least frequently occurring amino acids in proteins. Additionally, the majority of the extracellular cysteines form disulfide bonds, which, together with the transmembrane cysteines, are inert to thiol-reactive reagents. Additionally, some of the intracellular cysteines in the C-terminal tail may carry post-translational modifications which reduces the number of reactive cysteines in the receptor (Tian et al. 2017. Chem. Rev. 117:186-245). For GHSR, the remaining reactive cysteine residues C146 (ICL2) and C304 (extracellular end of TM7) were replaced by serines (cysmin mutant, i.e. mutant with minimal cysteines), to allow the monobromobimane (MB) fluorescent probe to be specifically attached to Cys255 in the lower part of TM6 (FIG. 5a) (Damian et al. 2021). In this assay, bimane is chosen because of its small size and sensitivity to the polarity of its environment (Yao et al. 2006. Nat Chem. Biol. 2:417-422). Binding of a ligand to the receptor, causes a conformational change and outward movement of TM6 that places bimane in a more solvent-exposed position, which alters its maximum emission wavelength. […]

[2] = Solubility in aqueous buffer; details: aqueous buffer for RLA
HEK293 1C8 cells = test: MTT cytotoxicity assay; assay type: cell-based, human; details: varying concentrations up to 40 μM, 3 h 45 min
Method: Cells were washed two times with PBS and incubated with 3-(4,5-dimethylthiazol-2-yl)-2,5-diphenyltetrazolium bromide (MTT) during 3 h, at 37° C. Afterwards, cells were washed once with PBS and then incubated for 10 min with DMSO. Plates were analysed with a Tecan Spark 10 M microplate reader.
An MTT assay was used to assess the cytotoxicity of the non-fluorescent Gq/11 peptidomimetics of Example 5. An MTT assay is a colorimetric test that evaluates the cell metabolic activity and reflects the cell viability.

Molecule	conformational change in the receptor [1]	solubility in aqueous buffer [2]	cytotoxicity / viability (HEK293 1C8 cells)
CC[C@H](C)[C@H](NC(=O)[C@H](CC(=O)O)NC(=O)[C@H](CCCCN)NC(=O)[C@H](CS)NC(=O)[C@H](CC(=O)O)NC(=O)[C@H](CC(N)=O)NC(=O)[C@H](Cc1ccccc1)NC(C)=O)C(=O)N[C@H](C(=O)N[C@@H](CC(C)C)C(=O)N[C@@H](CCC(N)=O)C(=O)N[C@@H](CCSC)C(=O)N[C@@H](CC(N)=O)C(=O)N[C@@H](CC(C)C)C(=O)N[C@@H](CCCNC(=N)N)C(=O)N[C@@H](CCC(=O)O)C(=O)N[C@@H](Cc1ccc(O)cc1)C(=O)N[C@@H](CC(N)=O)C(=O)N[C@@H](CC1CCCCC1)C(=O)N[C@H](C(=O)O)C(C)C)[C@@H](C)CC [SBL-GQ-09] (Ac-FNDCKDIILQMNLREYN[Cha]V-OH)	not able to induce a conformational change	not soluble	–
CC[C@H](C)[C@H](NC(=O)[C@@H]1CCCCn2cc(nn2)C[C@H](NC(=O)[C@H](C)NC(=O)[C@H](Cc2ccccc2)NC(=O)[C@H](CCCNC(=N)N)NC(=O)[C@H](CCCNC(=N)N)NC(=O)[C@H](CCCNC(=N)N)NC(=O)[C@@H](N)CCCNC(=N)N)C(=O)N[C@@H](C(C)C)C(=O)N[C@@H](CCCCN)C(=O)N[C@@H](CC(=O)O)C(=O)N1)C(=O)N[C@@H](CC(C)C)C(=O)N[C@@H](CCC(N)=O)C(=O)N[C@@H](CC(C)C)C(=O)N[C@@H](CC(N)=O)C(=O)N[C@@H](CC(C)C)C(=O)N[C@@H](CCCCN)C(=O)N[C@@H](CCC(=O)O)C(=O)N[C@@H](Cc1ccc(O)cc1)C(=O)N[C@@H](CC(N)=O)C(=O)N[C@@H](CC(C)C)C(=O)N[C@H](C(=O)O)C(C)C [SBL-GQ-14] (H-RRRRFA[Pra]VKD[Lys(N3)]ILQLNLKEYNLV-OH; triazole 7-11)	–	–	only a slight decrease in viability
Ac-FNDCKDIILQMNLREYNLV-OH [SBL-GQ-07]	not able to induce a conformational change	not soluble	–
